Key:
[1] = tested on: MGC-803; experiment: Cytotoxicity against human MGC803 cells after 72 hrs by MTT assay; type: functional, cell-based; conditions: MGC-803, 72 h
[2] = tested on: HepG2; experiment: Cytotoxicity against human HepG2 cells after 72 hrs by MTT assay; type: functional, cell-based; conditions: HepG2, 72 h
[3] = tested on: HCT-116; experiment: Cytotoxicity against human HCT116 cells after 72 hrs by MTT assay; type: functional, cell-based; conditions: HCT-116, 72 h
[4] = tested on: A549; experiment: Cytotoxicity against human A549 cells after 72 hrs by MTT assay; type: functional, cell-based; conditions: A549, 72 h
[5] = tested on: NCI-H460; experiment: Cytotoxicity against human NCI-H460 cells after 72 hrs by MTT assay; type: functional, cell-based; conditions: NCI-H460, 72 h
[6] = tested on: NCI-H460; experiment: Induction of apoptosis in human NCI-H460 cells assessed as late apoptotic cells at 45 uM after 24 hrs by Annexin V-FITC/propidium iodide staining-based flow cytometry (reference value: 0.8%); type: functional
[7] = tested on: NCI-H460; experiment: Induction of apoptosis in human NCI-H460 cells assessed as early apoptotic cells at 45 uM after 24 hrs by Annexin V-FITC/propidium iodide staining-based flow cytometry (reference value: 1.5%); type: functional
[8] = tested on: NCI-H460; experiment: Cell cycle arrest in human NCI-H460 cells assessed as accumulation at diploid S phase at IC50 after 48 hrs by propidium iodide staining-based FACS analysis (reference value: 23.27%); type: functional
[9] = tested on: NCI-H460; experiment: Cell cycle arrest in human NCI-H460 cells assessed as accumulation at diploid G2 phase at IC50 after 48 hrs by propidium iodide staining-based FACS analysis (reference value: 8.14%); type: functional
[10] = tested on: NCI-H460; experiment: Cell cycle arrest in human NCI-H460 cells assessed as accumulation at diploid G1 phase at IC50 after 48 hrs by propidium iodide staining-based FACS analysis (reference value: 68.60%); type: functional

| Compound | IC50 [1] [µM] | IC50 [2] [µM] | IC50 [3] [µM] | IC50 [4] [µM] | IC50 [5] [µM] | Activity [6] [%] | Activity [7] [%] | Activity [8] [%] | Activity [9] [%] | Activity [10] [%] |
| --- | --- | --- | --- | --- | --- | --- | --- | --- | --- | --- |
| CC(C)C1=C[C@]23CC[C@@H]4[C@](C)(CCC[C@@]4(C)C(=O)O)[C@H]2C[C@H]1[C@H]1C(=O)OC(=O)[C@H]13 | 61.8 | > 100 | 98.7 | 81.2 | > 100 |  |  |  |  |  |
| O=c1[nH]cc(F)c(=O)[nH]1 [FLUOROURACIL] | 15.3 | 19.4 | 8.32 | 20.1 | 23.3 | 6.5 | 16.8 | 28.07 | 0 | 71.93 |
